This is an account of results in a melting point compilation (Tetko et al.; mined from patent text by program, amines drawn as free bases though some values may be those of a salt).

A value given as a limit tells only on which side of the number the result lay.

As for `COc1ccc(CNc2c(C)c(C)c3c(c2C)C(c2ccc(C)cc2)C(C)(C)O3)cc1` (centres undefined), the melting point lay in the range of 97 to 98 °C.

Turning to `CCOc1ccc(S(=O)(=O)N(CC(=O)NN=C2C(=O)Nc3ccccc32)c2ccc(C)cc2)cc1`, the melting point fell in the range of 130 to 131 °C.

In turn, `Cn1ncc2[nH]c3c(Br)cccc3c(=O)c21` had a melting point of 287 °C.

`CCCCc1cc2cc([N+](=O)[O-])ccc2n1C` displayed a melting point of 77 °C.

Regarding `CNCCCCn1c(-c2ccc(Br)cc2)csc1=Nc1ccccc1`, the melting point fell in the range of 56 to 57 °C.

`CC(C)CCCC(C)(C)NC(=O)CN1C(=O)c2ccccc2C1=O` registered a melting point of 162 to 163 °C.

In the case of `O=S(=O)(Cl)c1c(Cl)sc(Cl)c1Cl`, the melting point stood at 55 °C.

`c1ccc(Nc2nccc(-c3ccc(-c4ccc(N(c5ccccc5)c5ccccc5)cc4)cc3)n2)cc1` registered a melting point greater than 300 °C.

Compound `CCCc1nc2c(N)nc3cc(OCCCNS(=O)(=O)CCc4cccc5ccccc45)ccc3c2n1CC(C)C` showed a melting point of 164 to 168 °C.

For `CCCCC1(CCCC)C(=O)N(C(C)(C)C)CC(C)(C)N1OC(C)(C)C#N`, the melting point is 68 to 74 °C.

In turn, `CN1CCC(c2cccc(C(F)(F)F)c2)(C(C)(C)O)CC1` showed a melting point of 111 to 112 °C.

The compound `Nc1nc(O)ncc1-c1cccc(Cl)c1Cl` had a melting point of 330 to 334 °C.

As to `N#Cc1ccc(NC2CCN(Cc3cc(F)cc(F)c3)CC2)nn1`, the melting point worked out at 188 °C.

`CSc1c(C(Cc2ccc(Cl)cc2)C(=O)O)ccc2c3ccccc3n(Cc3ccc(Cl)cc3)c12` (centres undefined): the melting point lay within 104 to 107 °C.

In the case of `CCOc1ccc(C=O)cc1CCl`, the melting point lay in the range of 74.5 to 75.5 °C.

Regarding `COc1ccccc1OCC(O)CNc1nc(-c2ccccc2)nc2ccccc12` (centres undefined), the melting point lay within 138 to 140 °C.

With `CCOC(=O)CC1CN=C(c2cc3cccc(N(C)S(=O)(=O)c4cccs4)c3[nH]2)S1` (centres undefined), the melting point fell in the range of 101 to 102 °C.

Regarding `COc1cc(Nc2nccc(-c3ccc(NCCCNC(C)C)nc3)n2)cc(OC)c1OC`, the melting point is 124 to 125 °C.

`Fc1ccc(CN2CC=C(/C=C/c3ccccc3)CC2)cc1` yielded a melting point of 115 to 117 °C.

Turning to `O=c1c2cncc3cccc(c32)n2c([N+](=O)[O-])ccc12`, the melting point came out at 192 °C.

Compound `CC1=NC(=Cc2cccc(-c3ccc(Cl)cc3)c2)C(=O)O1` had a melting point of 150 °C.

With `CCSC1(CCO)C(=O)Nc2ccc(Cl)cc21` (centres undefined), the melting point lay in the range of 132 to 135 °C.

Regarding `CN(C)S(=O)(=O)c1cccc(OC(F)F)c1C#N`, the melting point is 100 to 102 °C.

The compound `CCS(=O)(=O)N(C)[C@@H]1c2cc(OCc3ccccc3)ccc2OC(C)(C)[C@H]1O` returned a melting point of 165 to 167 °C.

Turning to `CC(=O)c1cccc2nnsc12`, the melting point lay in the range of 126 to 127 °C.

`COC(=O)C(Cl)=Cc1cc([N+](=O)[O-])ccc1Cl` registered a melting point of 108 to 110 °C.

The compound `CC(C)(OCc1nn(Cc2ccccc2)c2ccccc12)C(=O)NO` displayed a melting point of 115 to 116 °C.

In turn, `Cc1cccc(C(=O)c2[nH]c3ccc(Cl)cc3c2CC(=O)O)n1` registered a melting point of 225 to 226 °C.

The compound `CC(=O)Nc1cc(C(C)(C)C)ccc1N1CCOCC1` yielded a melting point of 112 to 113 °C.

On to `CCCCCCCCCCCCCCCCCCOc1cc(OCCCCC(=O)OC)cc(N(CC(=O)O)CC(=O)O)c1`, for which the melting point lay in the range of 91 to 94 °C.

`CCCCCc1ccc(-c2ccc(C3CC(CCCCC)C(=O)O3)cc2)cc1` (centres undefined) showed a melting point of 86.2 to 88.4 °C.

For `COC1(c2ccc(Sc3ccc4ccccc4c3)s2)CCOCC1`, the melting point is 70 °C.

The compound `CN(C)C(C)(O)CC12CCC(c3ccccc31)c1ccccc12` (centres undefined) gave a melting point of 118 to 121 °C.

On to `O=C(C=C1SC(Nc2c(Cl)cccc2Cl)=NC1=O)NCc1ccccc1`, for which the melting point lay within 205 to 206 °C.

Take `Cc1cc(NCc2ccccc2)c([N+](=O)[O-])c(=O)[nH]1`: the melting point lay within 246 to 247 °C.

Consider `O=C(Nc1c[nH]nc1C(=O)NCCCc1ccccc1)c1ccccn1`, for which the melting point lay in the range of 179 to 180 °C.

`CC(=O)c1ccc(OCC(C)(O)C(=O)Nc2ccc([N+](=O)[O-])c(C)c2)cc1` (centres undefined): the melting point lay in the range of 153 to 155 °C.

Take `COCc1cc(Cl)c2cccc(OC)c2n1`: the melting point was in the range of 67 to 69 °C.

Compound `CSc1ncc(F)c(NCc2ccccc2F)n1` displayed a melting point of 144 to 146 °C.

In turn, `COCCOCONC(=O)c1nc(-c2ccc(Cl)c(OC)c2F)cc(N)c1Cl` gave a melting point of 126 to 128 °C.

`CCCOc1ccc(S(C)(=O)=O)cc1C(=O)Nc1c(CC)nn(CC2CCCN2C)c1C(N)=O` (centres undefined) came in with a melting point of 217 to 221 °C.

`O=C(Nc1cccc(O)c1)NC1N=C(c2ccccc2F)c2ccccc2N(CC(=O)N2CC3CCC(CC3)C2)C1=O` (racemic) had a melting point of 184 to 185 °C.

For the compound `COc1cc(CC(C)(C)NC(=O)c2ccc(Cl)nc2)cc2c1OC(C)(C)C2`, the melting point fell in the range of 118 to 119 °C.

The compound `O=C1NCC(c2ccccc2)CCC1Br` (centres undefined) showed a melting point of 218 to 220 °C.

As for `Nc1ccc2c(c1Br)C(=O)C1(CC1)O2`, the melting point was 167 to 170 °C.

Turning to `O=C1c2ccccc2C(=O)N1Cc1ccncc1`, the melting point fell in the range of 164 to 165 °C.

`COc1ccc(C2OC(=O)N3CC(=O)CCC23)cc1OC` (centres undefined) came in with a melting point of 180 °C.

Compound `COc1cc(N)c(Cl)cc1C(=O)N[C@H]1CCN(CCNc2nccs2)C[C@H]1OC` (relative stereo) showed a melting point of 141 °C.

`OCc1cn(Cc2ccc(Cl)cc2)nc1CN1CCC(c2ccccc2)(c2ccccc2)CC1` returned a melting point of 104 to 105 °C.

Turning to `CCCCCS(=O)(=O)c1cccc(-c2nc(=O)c3ccccc3s2)n1`, the melting point was in the range of 160 to 161 °C.

Turning to `CCOC(=O)C=Cc1ccc(N)cc1C`, the melting point lay within 73 to 74 °C.

As to `CCOC(=O)c1cnn(-c2ccccn2)c1C#N`, the melting point lay within 112 to 114 °C.

Consider `COC(=O)C1=C(C)NC(C)=C(C(=O)O)[C@H]1c1cccc2nonc12`, for which the melting point was determined as 175 °C.

Compound `CCC(CC)(COc1nn2ccnc2cc1C)CS(N)(=O)=O` had a melting point of 210 to 211 °C.

Consider `CC(=O)c1cc(CNS(C)(=O)=O)ccc1O`, for which the melting point fell in the range of 85 to 86.5 °C.

The compound `CCCCCc1ccc(OCC(O)CC#CCCCC(=O)O)cc1` (centres undefined) gave a melting point of 54 to 57 °C.

Regarding `COc1cc2c(cc1Nc1ncc(Cl)c(Nc3ccccc3S(=O)(=O)N(C)C)n1)CCN(Cc1nccn1C)CC2`, the melting point was in the range of 79 to 86 °C.

For `O=C(NC12CC3CC(CC(C3)C1)C2)c1cc(O)c(O)cc1[N+](=O)[O-]`, the melting point was 250 to 255 °C.

In turn, `CN(C)CCC(=O)Nc1ccc2c(c1)C(=O)c1cc(NC(=O)CCN(C)C)ccc1C2=O` returned a melting point of 196 °C.

The compound `OCc1ccc(I)nc1` yielded a melting point of 102 °C.

`CCOC(=O)c1c(CCCn2ccnc2)nc2cc(OC)c(OC)cc2c1-c1ccc(OC)c(OC)c1` displayed a melting point of 164 to 165 °C.

In the case of `Nc1ncc2cc(-c3ccccn3)c(N)nc2n1`, the melting point fell in the range of 312 to 321 °C.

`Cc1cc(SC(C)C)c(NC(=O)CCCCSc2nc3cccc(C(F)(F)F)c3o2)c(SC(C)C)n1` returned a melting point of 118 to 120 °C.

`COc1ccc2c(c1)N(CCNC(C)=O)C(c1ccccc1)CO2` (centres undefined) came in with a melting point of 125 to 126 °C.

The compound `CC(C)ON=Cc1nn(-c2c(Cl)cc(C(F)(F)F)cc2Cl)c(N)c1S(C)=O` (centres undefined) showed a melting point of 128 to 130 °C.

On to `O=C(O)c1ccc(N2CCCC2)c(NC(=O)C(CS)Cc2ccccc2)c1` (centres undefined), for which the melting point lay in the range of 229 to 234 °C.

`N#Cc1nn(-c2c(Cl)cc(C(F)(F)F)cc2Cl)c(N)c1-c1ccc(Cl)cc1` had a melting point of 235 to 237 °C.

Compound `Cc1noc(NS(=O)(=O)c2c(Cc3ccccc3)sc3ccccc23)c1Br` gave a melting point of 120 to 123 °C.

`CCN1CCCC1CNS(=O)(=O)c1ccc(Nc2ccnc3cc(Cl)ccc23)cc1` (centres undefined) yielded a melting point of 200 to 202 °C.

`O=C(O)c1ccc2c(c1)C(=O)CCC2`: the melting point lay in the range of 210 to 215 °C.

As to `O=c1[nH]c(N[N+](=O)[O-])ncc1Cc1cccc2ccccc12`, the melting point is 226 to 227 °C.

`CC(=O)OC1CSC(Oc2cccnc2-c2ccncc2)C(OC(C)=O)C1OC(C)=O` (centres undefined) displayed a melting point of 161 °C.

In turn, `OCc1ccc(-c2cccc(-c3cn([C@H]4CN5CCC4CC5)nn3)c2)cc1` registered a melting point of 214 °C.

Compound `Cc1cc(Nc2ccnc(Nc3ccc(S(=O)(=O)N(CC4CCCO4)C4CCN(C)CC4)cc3)n2)ccc1F` (centres undefined) displayed a melting point of 189 °C.

`COC(=O)c1ccc(OCCCOc2ccccc2)cc1O` came in with a melting point of 90 to 92 °C.

On to `CC(C)N=C(NC(C)C)ON1C(C)(C)CC(O)CC1(C)C`, for which the melting point was 118 to 123 °C.

`NS(=O)(=O)c1cc(C(=O)CBr)ccc1F` had a melting point of 125 °C.

With `COc1cc(F)c(C=O)cc1O`, the melting point was in the range of 153 to 154 °C.

`C=C(c1cc(F)ccc1OCc1ccc(Cl)cc1Cl)n1ccnc1` registered a melting point of 118 to 120 °C.

In the case of `CC1CCN(C(=O)C(Cc2cc3c(N)nccc3s2)NS(=O)(=O)c2ccc(COC3CCOCC3)cc2)CC1` (centres undefined), the melting point is 124 to 128 °C.

Regarding `O=c1c(C2=Nc3ccccc3S(=O)(=O)N2)c(O)c2ccccc2n1CC1CCCCC1`, the melting point fell in the range of 232 to 235 °C.

Compound `Nc1ccc(CO)cc1[N+](=O)[O-]` returned a melting point of 100 to 101 °C.

In turn, `CCOC(=O)CC(=O)C(C)(C)Sc1ccccc1` showed a melting point of 44 to 45 °C.

As for `Cc1ccc(S(=O)(=O)N2CC=CC2)cc1`, the melting point lay in the range of 123 to 124 °C.

Compound `CCCCc1nc(CCCC)n(Cc2ccc(-c3ccccc3-c3nnn[nH]3)cn2)n1` came in with a melting point of 136 to 138 °C.

In turn, `Cn1cc(C(=O)NCc2ccc(Cl)cc2)c(=O)c2cc(CN3CCOCC3)cc(C#CCC[C@@H]3COC(=O)N3)c21` had a melting point of 171 to 173 °C.

In the case of `CC(=O)c1ccc(NS(C)(=O)=O)c(Cl)c1`, the melting point is 129 to 131 °C.

Compound `NCc1cccc(O)c1` returned a melting point of 79 to 81 °C.

Consider `CCOC(=O)C(C)(C)CCCOc1ccc(OCCn2c(=O)sc3cc(C(=O)c4ccccc4)ccc32)cc1`, for which the melting point lay in the range of 82 to 84 °C.

What is called melting point is the temperature, or range, at which the solid turns liquid.
